Where two headings read alike, the source gives them in different places. Where only a bound is given, the exact number is not on record here.

In this test the target is T1, BCL6 (Homo sapiens, UniProt P41182).
T1 construct: endogenous in cells; host or cells: T47D breast cancer epithelial cells
The test can be described thus: Immunofluorescence protocol for high content imaging of BCL6 (degradation) in T47D cells, 3 days compound treatment. The test is classed as cell-based. As to conditions: for DC50: read-out: Mean DC50 (nM)* category; for Dmax: read-out: Mean Dmax (%)** category. The essentials: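 Remaining BCL6 in breast cancer T47D cells was measured by high-content immunofluorescence imaging after 3 days of treatment with serially diluted compound (top 0.1 or 1 μM). Nuclei were stained with Hoechst and cells with CellMask.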

[1] abbreviates: T47D cells, 3 days compound treatment.

For orientation: DC50 means the concentration giving 50% degradation. For orientation: Dmax means the largest share of the target that was removed. Take `CNC(=O)COc1cc2cc(Nc3nc(N4CCN(C[C@H]5C[C@H](N6CCC(c7cccc8c7C(=O)N(C7CCC(=O)NC7=O)C8=O)CC6)C5)CC4)ncc3Cl)ccc2n(C(C)C)c1=O` (stereo partly drawn) [Compound 24, 2-[(6-{[5-chloro-2-(4-{[(1r,3r)-3-{4-[2-(2,6-dioxopiperidin-3-yl)-1,3-dioxo-2,3-dihydro-1H-isoindol-4-yl]piperidin-1-yl}cyclobutyl]methyl}piperazin-1-yl)pyrimidin-4-yl]amino}-2-oxo-1-(propan-2-yl)-1,2-dihydroquinolin-3-yl)oxy]-N-methylacetamide]: under setting [1], the DC50 lay within 50 to 100 nM and the Dmax was below 50%.

As to `CNC(=O)COc1cc2cc(Nc3nc(N4CCC(CN5CCC6(CC5)CCN6c5ccc6c(c5)C(=O)N(C5CCC(=O)NC5=O)C6=O)CC4)ncc3Cl)ccc2n(C(C)C)c1=O` (stereo not drawn) [Compound 335, 2-{[6-({5-chloro-2-[4-({1-[2-(2,6-dioxopiperidin-3-yl)-1,3-dioxo-2,3-dihydro-1H-isoindol-5-yl]-1,7-diazaspiro[3.5]nonan-7-yl}methyl)piperidin-1-yl]pyrimidin-4-yl}amino)-2-oxo-1-(propan-2-yl)-1,2-dihydroquinolin-3-yl]oxy}-N-methylacetamide], the DC50 was below 10 nM. Further, the Dmax (T47D) was at least 70%.

Turning to `CNC(=O)COc1cc2cc(Nc3nc(N4CCC(O[C@H]5C[C@H](N6CCC(c7ccc8c(c7Cl)CN(C7CCC(=O)NC7=O)C8=O)CC6)C5)CC4)ncc3Cl)ccc2n(C(C)C)c1=O` (stereo partly drawn) [Compound 163, 2-({6-[(5-chloro-2-{4-[(1r,3r)-3-{4-[4-chloro-2-(2,6-dioxopiperidin-3-yl)-1-oxo-2,3-dihydro-1H-isoindol-5-yl]piperidin-1-yl}cyclobutoxy]piperidin-1-yl}pyrimidin-4-yl)amino]-2-oxo-1-(propan-2-yl)-1,2-dihydroquinolin-3-yl}oxy)-N-methylacetamide], under setting [1], the DC50 was below 10 nM and the Dmax was at least 70%.

`CNC(=O)COc1cc2cc(Nc3nc(N4CCC(OC5CCC6(CC5)CN(c5ccc(F)c7c5CN(C5CCC(=O)NC5=O)C7=O)C6)CC4)ncc3Cl)ccc2n(C(C)C)c1=O` (stereo not drawn) [Compound 312, 2-{[6-({5-chloro-2-[4-({2-[2-(2,6-dioxopiperidin-3-yl)-7-fluoro-1-oxo-2,3-dihydro-1H-isoindol-4-yl]-2-azaspiro[3.5]nonan-7-yl}oxy)piperidin-1-yl]pyrimidin-4-yl}amino)-2-oxo-1-(propan-2-yl)-1,2-dihydroquinolin-3-yl]oxy}-N-methylacetamide]: the 50% degradation concentration (DC50) was below 10 nM. Moreover, the Dmax (T47D) lay in the range of 50 to 70%.

For the molecule `CNC(=O)COc1cc2cc(Nc3nc(N4CCC(O[C@H]5C[C@H](N6CCC(O)(c7ccc8c(c7F)CN(C7CCC(=O)NC7=O)C8=O)CC6)C5)CC4)ncc3Cl)ccc2n(C(C)C)c1=O` (stereo partly drawn) [Compound 277, 2-({6-[(5-chloro-2-{4-[(1r,3r)-3-{4-[2-(2,6-dioxopiperidin-3-yl)-4-fluoro-1-oxo-2,3-dihydro-1H-isoindol-5-yl]-4-hydroxypiperidin-1-yl}cyclobutoxy]piperidin-1-yl}pyrimidin-4-yl)amino]-2-oxo-1-(propan-2-yl)-1,2-dihydroquinolin-3-yl}oxy)-N-methylacetamide], the DC50 was below 10 nM. The Dmax (T47D) was in the range of 50 to 70%.

As to `CNC(=O)COc1cc2cc(Nc3nc(N4CCN(CC5CC6(CCN(c7ccc8c(c7F)CN(C7CCC(=O)NC7=O)C8=O)CC6)C5)CC4)ncc3Cl)ccc2n(C(C)C)c1=O` (stereo not drawn) [Compound 319, 2-{[6-({5-chloro-2-[4-({7-[2-(2,6-dioxopiperidin-3-yl)-4-fluoro-1-oxo-2,3-dihydro-1H-isoindol-5-yl]-7-azaspiro[3.5]nonan-2-yl}methyl)piperazin-1-yl]pyrimidin-4-yl}amino)-2-oxo-1-(propan-2-yl)-1,2-dihydroquinolin-3-yl]oxy}-N-methylacetamide], the DC50 was below 10 nM. In addition, for the setting “T47D”, the Dmax was 50 to 70%.

Turning to `CNC(=O)COc1cc2cc(Nc3nc(N4CCC(O[C@H]5C[C@H](N6CCC(c7ccc8c(c7C(F)(F)F)CN(C7CCC(=O)NC7=O)C8=O)CC6)C5)CC4)ncc3Cl)ccc2n(C(C)C)c1=O` (stereo partly drawn) [Compound 226, 2-({6-[(5-chloro-2-{4-[(1r,3r)-3-{4-[2-(2,6-dioxopiperidin-3-yl)-1-oxo-4-(trifluoromethyl)-2,3-dihydro-1H-isoindol-5-yl]piperidin-1-yl}cyclobutoxy]piperidin-1-yl}pyrimidin-4-yl)amino]-2-oxo-1-(propan-2-yl)-1,2-dihydroquinolin-3-yl}oxy)-N-methylacetamide], the DC50 is below 10 nM. In addition, under “T47D”, the Dmax was at least 70%.

`CNC(=O)COc1cc2cc(Nc3nc(N4CCC(F)(CN5CC6(CCN(c7ccc8c(c7)CN(C7CCC(=O)NC7=O)C8=O)CC6)C5)CC4)ncc3Cl)ccc2n(C(C)C)c1=O` (stereo not drawn) [Compound 122, 2-{[6-({5-chloro-2-[4-({7-[2-(2,6-dioxopiperidin-3-yl)-1-oxo-2,3-dihydro-1H-isoindol-5-yl]-2,7-diazaspiro[3.5]nonan-2-yl}methyl)-4-fluoropiperidin-1-yl]pyrimidin-4-yl}amino)-2-oxo-1-(propan-2-yl)-1,2-dihydroquinolin-3-yl]oxy}-N-methylacetamide]: under setting [1], the DC50 was below 10 nM and the Dmax lay within 50 to 70%.

As for `CNC(=O)COc1cc2cc(Nc3nc(N4CCN(C(C)(C)C5CCN(c6cc7c(c(OC)c6)C(=O)N(C6CCC(=O)NC6=O)C7)CC5)CC4)ncc3Cl)ccc2n(C(C)C)c1=O` (stereo not drawn) [Compound 77, 2-{[6-({5-chloro-2-[4-(2-{1-[2-(2,6-dioxopiperidin-3-yl)-7-methoxy-1-oxo-2,3-dihydro-1H-isoindol-5-yl]piperidin-4-yl}propan-2-yl)piperazin-1-yl]pyrimidin-4-yl}amino)-2-oxo-1-(propan-2-yl)-1,2-dihydroquinolin-3-yl]oxy}-N-methylacetamide], under setting [1], the DC50 was below 10 nM and the Dmax is 50 to 70%.

`CNC(=O)COc1cc2cc(Nc3nc(N4CCC(F)(CN5CCC6(CC5)CCN(c5c(F)ccc7c5CN(C5CCC(=O)NC5=O)C7=O)CC6)CC4)ncc3Cl)ccc2n(C(C)C)c1=O` (stereo not drawn) [Compound 151, 2-{[6-({5-chloro-2-[4-({9-[2-(2,6-dioxopiperidin-3-yl)-5-fluoro-1-oxo-2,3-dihydro-1H-isoindol-4-yl]-3,9-diazaspiro[5.5]undecan-3-yl}methyl)-4-fluoropiperidin-1-yl]pyrimidin-4-yl}amino)-2-oxo-1-(propan-2-yl)-1,2-dihydroquinolin-3-yl]oxy}-N-methylacetamide]: under setting [1], the DC50 is below 10 nM and the greatest degradation seen (Dmax) was 50 to 70%.

Turning to `CNC(=O)COc1cc2cc(Nc3nc(N4CCC5(CC4)CC(C(=O)N4CCC(c6cccc7c6CN(C6CCC(=O)NC6=O)C7=O)CC4)C5)ncc3Cl)ccc2n(C(C)C)c1=O` (stereo not drawn) [Compound 19, 2-[(6-{[5-chloro-2-(2-{4-[2-(2,6-dioxopiperidin-3-yl)-1-oxo-2,3-dihydro-1H-isoindol-4-yl]piperidine-1-carbonyl}-7-azaspiro [3.5]nonan-7-yl)pyrimidin-4-yl]amino}-2-oxo-1-(propan-2-yl)-1,2-dihydroquinolin-3-yl)oxy]-N-methylacetamide], under setting [1], the DC50 was below 10 nM and the Dmax is 50 to 70%.

On to `CNC(=O)COc1cc2cc(Nc3nc(N4CCN(C[C@H]5C[C@H](N6CCC(c7ccc8c(c7)C(=O)N(C7CCC(=O)NC7=O)C8=O)CC6)C5)CC4)ncc3Cl)ccc2n(C(C)C)c1=O` (stereo partly drawn) [Compound 41, 2-[(6-{[5-chloro-2-(4-{[(1r,3r)-3-{4-[2-(2,6-dioxopiperidin-3-yl)-1,3-dioxo-2,3-dihydro-1H-isoindol-5-yl]piperidin-1-yl}cyclobutyl]methyl}piperazin-1-yl)pyrimidin-4-yl]amino}-2-oxo-1-(propan-2-yl)-1,2-dihydroquinolin-3-yl)oxy]-N-methylacetamide], for which, under setting [1], the half-maximal degradation concentration (DC50) fell in the range of 50 to 100 nM and the Dmax was at least 70%.

Turning to `CNC(=O)COc1cc2cc(Nc3nc(N4CCC(O[C@H]5C[C@H](N6CCN(c7cc(OC)c8c(c7)C(=O)N(C7CCC(=O)NC7=O)C8=O)CC6)C5)CC4)ncc3Cl)ccc2n(C(C)C)c1=O` (stereo partly drawn) [Compound 379, 2-({6-[(5-chloro-2-{4-[(1r,3r)-3-{4-[2-(2,6-dioxopiperidin-3-yl)-7-methoxy-1,3-dioxo-2,3-dihydro-1H-isoindol-5-yl]piperazin-1-yl}cyclobutoxy]piperidin-1-yl}pyrimidin-4-yl)amino]-2-oxo-1-(propan-2-yl)-1,2-dihydroquinolin-3-yl}oxy)-N-methylacetamide], the DC50 is below 10 nM. Moreover, the Dmax (T47D) was 50 to 70%.

On to `CNC(=O)COc1cc2cc(Nc3nc(N4CCC(CN5CCC6(CCN(c7c(F)ccc8c7C(=O)N(C7CCC(=O)NC7=O)C8=O)C6)C5)CC4)ncc3Cl)ccc2n(C(C)C)c1=O` (stereo not drawn) [Compound 139, 2-{[6-({5-chloro-2-[4-({7-[2-(2,6-dioxopiperidin-3-yl)-5-fluoro-1,3-dioxo-2,3-dihydro-1H-isoindol-4-yl]-2,7-diazaspiro[4.4]nonan-2-yl}methyl)piperidin-1-yl]pyrimidin-4-yl}amino)-2-oxo-1-(propan-2-yl)-1,2-dihydroquinolin-3-yl]oxy}-N-methylacetamide], for which, under setting [1], the DC50 is below 10 nM and the Dmax lay in the range of 50 to 70%.

Take `CNC(=O)COc1cc2cc(Nc3nc(N4CCC(O[C@H]5C[C@H](N6[C@H](C)CN(c7ccc8c(c7)C(=O)N(C7CCC(=O)NC7=O)C8=O)C[C@@H]6C)C5)CC4)ncc3Cl)ccc2n(C(C)C)c1=O` (stereo partly drawn) [Compound 248, 2-[[6-[[5-chloro-2-[4-[3-[(2R,6S)-4-[2-(2,6-dioxo-3-piperidyl)-1,3-dioxo-isoindolin-5-yl]-2,6-dimethyl-piperazin-1-yl]cyclobutoxy]-1-piperidyl]pyrimidin-4-yl]amino]-1-isopropyl-2-oxo-3-quinolyl]oxy]-N-methyl-acetamide]: the DC50 is below 10 nM. Moreover, the Dmax (T47D) fell in the range of 50 to 70%.
